We go through 19 compounds from patent US10329294B2, “Pyrazolopyrimidine inhibitors of IRAK4 activity” (MERCK SHARP & DOHME CORP., priority 2015, dated 2019).

pIC50: −log10 of the molar value. Where a name gives a salt, the structure may show the parent alone. Read-outs that look alike come from different tables or passages of the source.

The experiment addresses IRAK4 (Homo sapiens (Human), UniProt Q9NWZ3). Description: IRAK4 Kinase Assay. It counts as biochemical. To be noted: IMAP fluorescence polarization, 0.5 nM GST tagged IRAK4, 100 μM ATP, 30 minutes at 25° C.; for pIC50: read-out: IRAK4 IC50.

IRAK4, sequence (Q9NWZ3 whole entry): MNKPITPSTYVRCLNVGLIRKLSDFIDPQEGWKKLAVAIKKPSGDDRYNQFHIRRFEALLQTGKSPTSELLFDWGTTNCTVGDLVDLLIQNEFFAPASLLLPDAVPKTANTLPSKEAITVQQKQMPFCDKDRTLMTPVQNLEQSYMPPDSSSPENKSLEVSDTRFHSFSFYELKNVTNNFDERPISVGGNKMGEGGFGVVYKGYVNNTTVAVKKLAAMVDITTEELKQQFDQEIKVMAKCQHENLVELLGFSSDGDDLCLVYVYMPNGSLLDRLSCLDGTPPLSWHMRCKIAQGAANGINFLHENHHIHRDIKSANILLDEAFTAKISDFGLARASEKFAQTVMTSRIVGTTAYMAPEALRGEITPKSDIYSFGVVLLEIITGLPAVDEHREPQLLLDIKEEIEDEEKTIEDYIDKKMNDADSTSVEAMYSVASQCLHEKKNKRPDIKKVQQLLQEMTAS

`CN[C@H]1CCCC[C@H]1Nc1ccn2ncc(C(=O)Nc3cn(C)nc3C(F)(F)F)c2n1` [Example 262, N-(1-Methyl-3-(trifluoromethyl)-1H-pyrazol-4-yl)-5-(((1R,2S)-2-(methylamino)cyclohexyl)amino)pyrazolo[1,5-a]pyrimidine-3-carboxamide]: the pIC50 (as a rule, the IC50 on a negative log10 scale, so that one unit is a factor of ten) is 7.62.
In the case of `Cn1cc(NC(=O)c2cnn3ccc(N4CCNC5(CC4)CC5)nc23)c(C(F)(F)F)n1` [Example 220, 5-(4,7-diazaspiro[2.6]non-7-yl)-N-[1-methyl-3-(trifluoromethyl)-1H-pyrazol-4-yl]pyrazolo[1,5-a]pyrimidine-3-carboxamide trifluoroacetate], the IC50 (commonly the concentration that gives 50% inhibition) (IRAK4 IC50 (nM)) was found to be 153 nM.
Consider `Cn1cc(NC(=O)c2cnn3ccc(N4C[C@H]5CNC[C@@H]4C5)nc23)c(C(F)(F)F)n1` (single isomer, unassigned) [Example 84, 5-[(1S,5R)- or (1R,5S)-3,6-diazabicyclo[3.2.1]oct-6-yl]-N-[1-methyl-3-(trifluoromethyl)-1H-pyrazol-4-yl]pyrazolo[1,5-a]pyrimidine-3-carboxamide], for which the pIC50 was 6.80.
Same read-out and setting: the same measure for `Cn1cc(NC(=O)c2cnn3ccc(N[C@@H]4CNCC[C@H]4F)nc23)c(C(F)(F)F)n1` (single isomer, unassigned) [Example 232, 5-{[(3R,4R)- or (3S,4S)-4-fluoropiperidin-3-yl]amino}-N-[1-methyl-3-(trifluoromethyl)-1H-pyrazol-4-yl]pyrazolo[1,5-a]pyrimidine-3-carboxamide]: 7.89; for `Cn1cc(NC(=O)c2cnn3ccc(N4CCN(CC5CC5)CC4)nc23)c(C(F)(F)F)n1` [Example 6, 5-[4-(cyclopropylmethyl)piperazin-1-yl]-N-[1-methyl-3-(trifluoromethyl)-1H-pyrazol-4-yl]pyrazolo[1,5-a]pyrimidine-3-carboxamide]: 6.17; for `Cn1cc(NC(=O)c2cnn3ccc(N[C@@H]4CNC[C@H](F)C4)nc23)c(C(F)(F)F)n1` [Example 254, 5-(((3S,5R)-5-Fluoropiperidin-3-yl)amino)-N-(1-methyl-3-(trifluoromethyl)-1H-pyrazol-4-yl)pyrazolo[1,5-a]pyrimidine-3-carboxamide]: 6.06.
`N[C@H]1CCCC[C@H]1Nc1ccn2ncc(C(=O)Nc3cn(CC(F)F)nc3C(F)(F)F)c2n1` [Example 292, 5-{[(1R,2S)-2-aminocyclohexyl]amino}-N-[1-(2,2-difluoroethyl)-3-(trifluoromethyl)-1H-pyrazol-4-yl]pyrazolo[1,5-a]pyrimidine-3-carboxamide trifluoroacetate]: the pIC50 is 9.10.
On the same count and under the same terms, the same measure for `Cn1cc(NC(=O)c2cnn3ccc(N4CC[C@@H]5CC[C@H](C4)N5)nc23)c(C(F)(F)F)n1` (single isomer, unassigned) [Example 94, 5-[(1R,6S)- or (1S,6R)-3,9-diazabicyclo[4.2.1]non-3-yl]-N-[1-methyl-3-(trifluoromethyl)-1H-pyrazol-4-yl]pyrazolo[1,5-a]pyrimidine-3-carboxamide trifluoroacetate]: 7.15.
On to `Cn1cc(NC(=O)c2cnn3ccc(N[C@H]4CNCCC4(F)F)nc23)c(C(F)F)n1` (single isomer, unassigned) [Example 242, N-[(R or S)-3-(difluoromethyl)-1-methyl-1H-pyrazol-4-yl]-5-[(4,4-difluoropiperidin-3-yl)amino]pyrazolo[1,5-a]pyrimidine-3-carboxamide trifluoroacetate], for which the pIC50 is 8.70.
As for `Cn1cc(NC(=O)c2cnn3ccc(N4CC5CC(C4)N5)nc23)c(C(F)(F)F)n1` [Example 19, 5-(3,6-diazabicyclo[3.1.1]hept-3-yl)-N-[1-methyl-3-(trifluoromethyl)-1H-pyrazol-4-yl]pyrazolo[1,5-a]pyrimidine-3-carboxamide trifluoroacetate], the pIC50 was 6.41.
Take `Cn1cc(NC(=O)c2cnn3ccc(N4C[C@@H]5CNC[C@H]4C5)nc23)c(C(F)(F)F)n1` (single isomer, unassigned) [Example 83, 5-[(1S,5R)- or (1R,5S)-3,6-diazabicyclo[3.2.1]oct-6-yl]-N-[1-methyl-3-(trifluoromethyl)-1H-pyrazol-4-yl]pyrazolo[1,5-a]pyrimidine-3-carboxamide]: the pIC50 is 7.48.
Still for that read-out and setting: the same measure for `N[C@@H]1[C@H](Nc2ccn3ncc(C(=O)Nc4ccsc4Br)c3n2)CCCC1(F)F` [Example 128, 5-{[(1R,2R)-2-amino-3,3-difluorocyclohexyl]amino}-N-(2-bromothiophen-3-yl)pyrazolo[1,5-a]pyrimidine-3-carboxamide trifluoroacetate]: 5.90.
Same read-out and setting: the same measure for `N#Cc1sccc1NC(=O)c1cnn2ccc(N[C@@H]3CCCC[C@@H]3N)nc12` [Example 42, 5-{[(1R,2S)-2-aminocyclohexyl]amino}-N-(2-cyanothiophen-3-yl)pyrazolo[1,5-a]pyrimidine-3-carboxamide trifluoroacetate]: 9.05; for `Cn1cc(NC(=O)c2cnn3ccc(N[C@H]4CNCCC4(F)F)nc23)c(C(F)F)n1` (single isomer, unassigned) [Example 244, N-[(R or S)-3-(difluoromethyl)-1-methyl-1H-pyrazol-4-yl]-5-[(4,4-difluoropiperidin-3-yl)amino]pyrazolo[1,5-a]pyrimidine-3-carboxamide trifluoroacetate]: 9.30; for `Cn1cc(NC(=O)c2cnn3ccc(N[C@@H]4CNCC(F)(F)C4)nc23)c(C(F)(F)F)n1` (single isomer, unassigned) [Example 218, 5-{[(3S)- or (3R)-5,5-difluoropiperidin-3-yl]amino}-N-[1-methyl-3-(trifluoromethyl)-1H-pyrazol-4-yl]pyrazolo[1,5-a]pyrimidine-3-carboxamide]: 6.16.
On to `Cn1cc(NC(=O)c2cnn3ccc(N4CC5CNC(C5)C4)nc23)c(C(F)F)n1` (stereo not shown) [Example 182, 5-[(3,6-diazabicyclo[3.2.1]oct-3-yl]-N-[3-(difluoromethyl)-1-methyl-1H-pyrazol-4-yl]pyrazolo[1,5-a]pyrimidine-3-carboxamide trifluoroacetate], for which the pIC50 is 7.85.
Take `Cn1cc(NC(=O)c2cnn3ccc(N4CCNC(C)(C)C4)nc23)c(C(F)(F)F)n1` [Example 30, 5-(3,3-dimethylpiperazin-1-yl)-N-[1-methyl-3-(trifluoromethyl)-1H-pyrazol-4-yl]pyrazolo[1,5-a]pyrimidine-3-carboxamide trifluoroacetate]: the pIC50 is 7.15.
`Cn1cc(NC(=O)c2cnn3ccc(N4CC5CCC4CCN5)nc23)c(C(F)(F)F)n1` (stereo not shown) [Example 73, 5-(2,6-diazabicyclo[3.2.2]non-6-yl)-N-[1-methyl-3-(trifluoromethyl)-1H-pyrazol-4-yl]pyrazolo[1,5-a]pyrimidine-3-carboxamide trifluoroacetate]: the pIC50 is 6.84.
Still for that read-out and setting: the same measure for `Cn1cc(NC(=O)c2cnn3ccc(N[C@@H]4CCCCC[C@@H]4N)nc23)c(C(F)(F)F)n1` (single isomer, unassigned) [Example 54, 5-{[(1R,2S)- or (1S,2R)-2-aminocycloheptyl]amino}-N-[1-methyl-3-(trifluoromethyl)-1H-pyrazol-4-yl]pyrazolo[1,5-a]pyrimidine-3-carboxamide]: 7.20.
